Assay results: patent publication US6710168B1, “Glycopeptide antibiotics, combinatorial libraries of glycopeptide antibiotics and methods of producing same” (The Trustees of the University of Princeton, priority 1999, dated 2004)
In brackets after ≈: the same amount, converted by molar mass.

How the values were obtained:
Type in all cases: cell-based
[1] = test system: Bacillus cereus (ATCC 11778); assay: MIC susceptibility test, microdilution with MTT readout; details: for MIC: Bacillus cereus, ATCC11778, read-out: MIC BC; for MIC BC: Bacillus ceres ATCC11778
Description: (§1) Evaluation of vancomycin analogs is performed using in vitro susceptibility tests and a time-kill assay. [NCCL Standard, 1993] In susceptibility tests, five strains of bacteria, two of the most important: Staphylococcus aureus and Enterococcus faecalis (both susceptible and resistant strains), and Bacillus cereus are chosen and bacteria viability remaining in each well is evaluated using a colorimetric assay based on the tetrazolium salt 3-(4,5-dimethyl-2-thiazolyl)-2,5-diphenyl-2H tetrazolium bromide (MTT) and minimum inhibitory concentration (MIC) values are determined as μg/mL. [Mosmann, T. (1983); Damour, O., et al. (1992); Mikami, Y., et al. (1994)] This assay gives susceptibility information quickly, efficiently, and clearly.
(§2) All strains [Bacillus cereus (ATCC® 11778), Staphylococcus aureus (ATCC® 29213), Methicillin resistant Staphylococcus aureus (ATCC® 33591), Enterococcus faecalis (ATCC® 29212), and gentamicin, streptmycin, vancomycin resistant Enterococcus faecalis (ATCC® 51299), are purchased from REMEL (Lenexa, Kans.).
(§3) MICs are determined by the microdilution method using 96-well microplates. Samples are suspended with Cation Adjusted (20 to 25 mg of Ca^2+/mL and 10 to […] of Mg^2+) Mueller-Hinton broth (Difco Laboratories, Detroit, Mich.) and are two-fold diluted from 5 μg/mL to […] on microplates (12 step dilution). To each well, which contained 100 μL of cell suspension (10^6 CFU/mL), 100 μL of antibiotic solution is added and the plates are incubated at 37° C. for 24 h. 50 μL of MTT solution (1 mg/mL) is added to each well, then the plates are incubated under the same conditions (incubation time; 30 min for Bacillus cereus, Staphylococcus aureus, and Methicillin resistant Staphylococcus aureus; 2 hours for Enterococcus faecalis and Gentamicin, Streptmycin, Vancomycin Enterococcus faecalis). MTT is a yellow tetrazolium salt that is reduced by mitochondrial enzymes in viable cells to an insoluble blue formazan product. MIC values are evaluated by observing the lowest drug concentration to inhibit bacteria growth.

[2] = test system: Enterococcus faecalis (ATCC 29212); assay: as above; details: Enterococcus faecalis ATCC29212; for MIC: read-out: MIC EF
Description: as §1, §2, §3

[3] = test system: Methicillin resistant Staphylococcus aureus (ATCC 33591); assay: as above; details: Staphylococcus aureus ATCC3359, Methicillin resistance; for MIC: ATCC 3359 / ATCC 33591 / MRSA, read-out: MIC MRSA
Description: as §1, §2, §3

[4] = test system: Staphylococcus aureus (ATCC 29213); assay: as above; details: Staphylococcus aureus ATCC29213; for MIC: read-out: MIC SA
Description: as §1, §2, §3

[5] = test system: gentamicin, streptmycin, vancomycin resistant Enterococcus faecalis (ATCC 51299); assay: microbe, parasite or virus in culture; details: for MIC: Enterococcus faecalis, ATCC51299, read-out: MIC VREF; for MIC VREF: Enterococcus faecalis ATCC51299, vancomycin resistance
Description: as §1, §2, §3

[6] = test system: Enterococcus faecium CL5137, VanA; assay: MIC susceptibility test; details: Enterococcus faecium CL5137, VanA; for MIC: read-out: MIC CL5137
[7] = test system: Enterococcus faecalis CL5244, VanB; assay: MIC susceptibility test; details: Enterococcus faecalis CL5244, VanB; for MIC: read-out: MIC CL5244
Description: as §1, §3

CN[C@@H](CC(C)C)C(=O)N[C@H]1C(=O)N[C@@H](CC(N)=O)C(=O)N[C@H]2C(=O)NC3C(=O)N[C@H](C(=O)N[C@@H](C(=O)O)c4cc(O)cc(O)c4-c4cc3ccc4O)[C@H](O)c3ccc(c(Cl)c3)Oc3cc2cc(c3OC2OC(CSc3nc4cc(Cl)ccc4s3)C(O)C(O)C2OC2CC(C)(N)C(O)C(C)O2)Oc2ccc(cc2Cl)[C@H]1O (stereo partly drawn) [LXVI, Glucose-C6-2-thio-5-chlorobenzothiazole Vancomycin]
MIC [1]: 0.16 µg/mL (≈ 0.098 µM) | MIC [2]: 0.24 µg/mL (≈ 0.147 µM) | MIC [3]: 1.3 µg/mL (≈ 0.796 µM) | MIC [4]: 0.63 µg/mL (≈ 0.386 µM) | MIC [5]: 0.32 µg/mL (≈ 0.196 µM) | MIC [6]: 50 µg/mL (≈ 30.6 µM) | MIC [7]: 0.4 µg/mL (≈ 0.245 µM)

CN[C@@H](CC(C)C)C(=O)N[C@H]1C(=O)N[C@@H](CC(N)=O)C(=O)N[C@H]2C(=O)NC3C(=O)N[C@H](C(=O)N[C@@H](C(=O)O)c4cc(O)cc(O)c4-c4cc3ccc4O)[C@H](O)c3ccc(c(Cl)c3)Oc3cc2cc(c3OC2OC(CSc3nnnn3-c3ccc(O)cc3)C(O)C(O)C2OC2CC(C)(N)C(O)C(C)O2)Oc2ccc(cc2Cl)[C@H]1O (stereo partly drawn) [LXVIII, Glucose-C6-5-thio-1-(4-hydroxyphenyl)-1H-tetrazole Vancomycin]
MIC [1]: 1.3 µg/mL (≈ 0.8 µM) | MIC [2]: 2.5 µg/mL (≈ 1.54 µM) | MIC [3]: 2.5 µg/mL (≈ 1.54 µM) | MIC [4]: 2.5 µg/mL (≈ 1.54 µM) | MIC [5]: > 5 µg/mL | MIC [6]: > 50 µg/mL | MIC [7]: 13 µg/mL (≈ 8 µM)

CNC(CC(C)C)C(=O)NC1C(=O)NC(CC(N)=O)C(=O)NC2C(=O)NC3C(=O)NC(C(=O)NC(C(=O)O)c4cc(O)cc(O)c4-c4cc3ccc4O)C(O)c3ccc(c(Cl)c3)Oc3cc2cc(c3OC2OC(CI)C(O)C(O)C2OC2CC(C)(N)C(O)C(C)O2)Oc2ccc(cc2Cl)C1O (stereo not drawn) [LXX, Glucose-C6-iodo Vancomycin]
MIC BC [1]: 0.63 µg/mL (≈ 0.404 µM) | MIC EF [2]: 0.63 µg/mL (≈ 0.404 µM) | MIC MRSA [3]: 1.3 µg/mL (≈ 0.834 µM) | MIC SA [4]: 0.63 µg/mL (≈ 0.404 µM) | MIC VREF [5]: 1.9 µg/mL (≈ 1.22 µM) | MIC CL5137 [6]: 50< μg/mL | MIC CL5244 [7]: 6.3 µg/mL (≈ 4.04 µM)

CCCCCCCCCCNC1(C)CC(OC2C(Oc3c4cc5cc3Oc3ccc(cc3Cl)C(O)C3NC(=O)C(NC(=O)C5NC(=O)C(CC(N)=O)NC(=O)C(NC(=O)C(CC(C)C)NC)C(O)c5ccc(c(Cl)c5)O4)c4ccc(O)c(c4)-c4c(O)cc(O)cc4C(C(=O)O)NC3=O)OC(CSc3nc(N)n[nH]3)C(O)C2O)OC(C)C1O (stereo not drawn) [LXXII, Vancosamine-N-decyl-glucose-C6-S-3-amino-5-mercapto-1,2,4-triazole Vancomycin]
MIC BC [1]: 2.5 µg/mL (≈ 1.48 µM) | MIC EF [2]: 0.32 µg/mL (≈ 0.19 µM) | MIC MRSA [3]: 1.9 µg/mL (≈ 1.13 µM) | MIC SA [4]: 3.8 µg/mL (≈ 2.25 µM) | MIC VREF [5]: 0.32 µg/mL (≈ 0.19 µM) | MIC CL5137 [6]: 6.3 µg/mL (≈ 3.73 µM) | MIC CL5244 [7]: 0.3 µg/mL (≈ 0.178 µM)

CN[C@H](CC(C)C)C(=O)N[C@H]1C(=O)N[C@@H](CC(N)=O)C(=O)N[C@H]2C(=O)N[C@H]3C(=O)N[C@H](C(=O)N[C@H](C(=O)O)c4cc(O)cc(O)c4-c4cc3ccc4O)[C@H](O)c3ccc(c(Cl)c3)Oc3cc2cc(c3OC2OC(CSc3nc(N)n[nH]3)C(O)C(O)C2OC2CC(C)(NCc3ccc(-c4ccc(Cl)cc4)cc3)C(O)C(C)O2)Oc2ccc(cc2Cl)[C@H]1O (stereo partly drawn) [LXXIII, Vancosamine-N-4-(4-chlorophenyl)benzyl, Glucose-C6-S-3-amino-5-mercapto-1,2,4-triazole Vancomycin]
MIC [1]: 0.48 µg/mL (≈ 0.275 µM) | MIC [2]: 0.16 µg/mL (≈ 0.0915 µM) | MIC [3]: 1 µg/mL (≈ 0.572 µM) | MIC [4]: 1.9 µg/mL (≈ 1.09 µM) | MIC [5]: 0.08 µg/mL (≈ 0.0458 µM) | MIC [6]: 3.2 µg/mL (≈ 1.83 µM) | MIC [7]: 0.2 µg/mL (≈ 0.114 µM)

CNC(CC(C)C)C(=O)NC1C(=O)NC(CC(N)=O)C(=O)NC2C(=O)NC3C(=O)NC(C(=O)NC(C(=O)O)c4cc(O)cc(O)c4-c4cc3ccc4O)C(O)c3ccc(c(Cl)c3)Oc3cc2cc(c3OC2OC(CI)C(O)C(O)C2OC2CC(C)(NCc3ccc(-c4ccc(Cl)cc4)cc3)C(O)C(C)O2)Oc2ccc(cc2Cl)C1O (stereo not drawn) [LXXIIa, Vancosamine-N-4-(4-chlorophenyl)benzyl-glucose-C6-iodo vancomycin]
MIC BC [1]: 0.32 µg/mL (≈ 0.182 µM) | MIC EF [2]: 0.16 µg/mL (≈ 0.0909 µM) | MIC MRSA [3]: 0.63 µg/mL (≈ 0.358 µM) | MIC SA [4]: 0.48 µg/mL (≈ 0.273 µM) | MIC VREF [5]: 0.32 µg/mL (≈ 0.182 µM) | MIC CL5137 [6]: 13 µg/mL (≈ 7.39 µM) | MIC CL5244 [7]: 0.3 µg/mL (≈ 0.17 µM)
